Laboratory results: PubChem BioAssay AID1963986 (Molecular Pharmacology Branch, DTP, NCI, 2024)

System: 171881-019-R-J1-PDC tumor spheroid viability
Test: Anticancer human tumor 171881-019-R-J1-PDC patient-derived invasive breast carcinoma cell line growth inhibition [PI3K]
Conditions: spheroids with HUVEC and MSC; for viability, T/C: stronger effect = lower value; active = viability on the fitted dose curve at most 10% of control; inactive = the rest
Source text: Combinatorial screen of targeted agents with the PI3K inhibitors inavolisib, alpelisib, duvelisib, and copanlisib in multi-cell type tumor spheroids
A high-throughput screen of multi-cell type tumor spheroids was designed to identify active combinations of targeted small molecules and PI3K pathway inhibitors. Complex spheroids include a stromal component modeled by human endothelial cells (HUVEC) and fibroblasts modeled by human mesenchymal stem cells (MSCs). The concentration ranges selected for each drug and investigational agent were based upon clinically achievable concentrations if the clinical Cmax of the agent was known.
Compounds. The drugs and investigational agents: inavolisib (NSC800729), alpelisib (NSC765974), duvelisib (NSC772469), copanlisib (NSC816437), ipatasertib (NSC767898), afuresertib (NSC778305), talazoparib (NSC767125), sapanisertib (NSC764658), selumetinib (NSC741078), tovorafenib (DAY101, NSC766906), vemurafenib (NSC761431), ravoxertinib (NSC781343), sotorasib (NSC818433), MRTX1133 (NSC 836407), abemaciclib (NSC 768073), palbociclib (NSC758247), venetoclax (NSC 766270), SY5609 (NSC837396), enzalutamide (NSC755605), and darolutamide (NSC825331), were obtained from the National Cancer Institute (NCI) Developmental Therapeutics Program Chemical Repository. The FDA-approved anticancer drug set is available from the NCI Developmental Therapeutics Program. […] The stock solutions were prepared in dimethyl sulfoxide (DMSO, Sigma-Aldrich, St. Louis, MO, cat. D2650) at 800-fold the tested concentration and stored at -70 degrees C prior to their use. All drugs and investigational agents were tested over a range starting from a high concentration at or near the clinical Cmax and decreasing in half-log increments. If the clinical Cmax for an agent had not been determined, the highest concentration tested was 10 microM.
Cell Culture. All cells were maintained in an incubator at 37 degrees C and 5% CO2 with 95% humidity. The PDC lines were cultured according to standard operating procedures established by the NCI PDMR (https://pdmr.cancer.gov/sops/default.htm). All PDCs were thawed and cultured in Matrigel-coated flasks prepared with a working solution of 1X Ham's F-12 nutrient mix, without supplementation (Invitrogen, Waltham, MA, cat. 11765054), 100 U/mL penicillin-streptomycin (Invitrogen, cat. 15140122), and 2.5% Matrigel (Corning Inc., Corning, NY, cat. 354248) for the first three passages. The 354836-022-R-J1-PDC, 475296-252-R-J1-PDC, and 997726-040-R-J2-PDC lines were cultured in 6A media, which includes advanced DMEM/F-12 (Thermo Fisher Scientific, cat. 12634028), 10 mM HEPES (Thermo Fisher Scientific, cat. 15630080), 1X GlutaMAX supplement (Thermo Fisher Scientific, cat. 35050061), 0.1 mg/mL primocin (InvivoGen, San Diego, CA, cat. ant-pm-2), 10% defined fetal bovine serum, heat inactivated (HyClone Laboratories Inc., Logan, UT, cat. SH30070.03HI), 50% L-WRN conditioned media (ATCC, cat. CRL-3276), 1.25 mM N-Acetyl-L-cysteine (Sigma-Aldrich, cat. A9165), 10 mM nicotinamide (Sigma-Aldrich, cat. N0636), 1X B-27 supplement (Thermo Fisher Scientific, cat. 17504044), 1X N-2 supplement (Thermo Fisher Scientific, cat. 17502048), and 10 microM Y-27632 dihydrochloride (Tocris Bioscience, Bristol, United Kingdom, cat. 1254). The 624824-186-R-J2-PDC line was cultured in 6C/Colon 1B media, which includes all 6A media components plus 50 ng/mL human EGF recombinant protein (Thermo Fisher Scientific, cat. PHG0311). […]
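Note: spheroids exposed to compound for 7 days before viability read.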
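Throughout, for viability, T/C: 100% = DMSO vehicle-treated spheroids.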

Cn1ncc(Cl)c1-c1cc(C(=O)NC(CN)Cc2cccc(F)c2)sc1Cl (stereo not given) + CC(Nc1ncnc2nc[nH]c12)c1cc2cccc(Cl)c2c(=O)n1-c1ccccc1
144 nM: IC50 (curve of first compound, second compound 0.0316 µM)
70.7 nM: IC50 (curve of first compound, second compound 10 µM)
active: viability, T/C (second compound 0.0316 µM, first compound 10 µM) 3.64% | viability, T/C (second compound 0.1 µM, first compound 10 µM) 6.15% | viability, T/C (second compound 0.316 µM, first compound 10 µM) 4.15% | viability, T/C (second compound 1 µM, first compound 3.16 µM) 11.6% | viability, T/C (second compound 1 µM, first compound 10 µM) 3.79% | viability, T/C (second compound 3.16 µM, first compound 3.16 µM) 9% | viability, T/C (second compound 3.16 µM, first compound 10 µM) 2.75% | viability, T/C (second compound 10 µM, first compound 3.16 µM) 6.81% | viability, T/C (second compound 10 µM, first compound 10 µM) 2.88%
125 nM: IC50 (curve of first compound, second compound 3.16 µM)
174 nM: IC50 (curve of first compound, second compound 0.1 µM)
150 nM: IC50 (curve of first compound, second compound 1 µM)
inactive: viability, T/C (second compound 0.0316 µM, first compound 0.0316 µM) 88.2% | viability, T/C (second compound 0.0316 µM, first compound 0.1 µM) 58.2% | viability, T/C (second compound 0.0316 µM, first compound 0.316 µM) 32.5% | viability, T/C (second compound 0.0316 µM, first compound 1 µM) 20.9% | viability, T/C (second compound 0.0316 µM, first compound 3.16 µM) 13.4% | viability, T/C (second compound 0.1 µM, first compound 0.0316 µM) 81.7% | viability, T/C (second compound 0.1 µM, first compound 0.1 µM) 64.9% | viability, T/C (second compound 0.1 µM, first compound 0.316 µM) 33.2% | viability, T/C (second compound 0.1 µM, first compound 1 µM) 20.6% | viability, T/C (second compound 0.1 µM, first compound 3.16 µM) 13.3% | viability, T/C (second compound 0.316 µM, first compound 0.0316 µM) 86.4% | viability, T/C (second compound 0.316 µM, first compound 0.1 µM) 62.4% | viability, T/C (second compound 0.316 µM, first compound 0.316 µM) 32.8% | viability, T/C (second compound 0.316 µM, first compound 1 µM) 21.4% | viability, T/C (second compound 0.316 µM, first compound 3.16 µM) 13.1% | viability, T/C (second compound 1 µM, first compound 0.0316 µM) 72.2% | viability, T/C (second compound 1 µM, first compound 0.1 µM) 59.6% | viability, T/C (second compound 1 µM, first compound 0.316 µM) 33.7% | viability, T/C (second compound 1 µM, first compound 1 µM) 18.5% | viability, T/C (second compound 3.16 µM, first compound 0.0316 µM) 78.5% | viability, T/C (second compound 3.16 µM, first compound 0.1 µM) 55.3% | viability, T/C (second compound 3.16 µM, first compound 0.316 µM) 30.4% | viability, T/C (second compound 3.16 µM, first compound 1 µM) 17.1% | viability, T/C (second compound 10 µM, first compound 0.0316 µM) 62.5% | viability, T/C (second compound 10 µM, first compound 0.1 µM) 44.8% | viability, T/C (second compound 10 µM, first compound 0.316 µM) 25.2% | viability, T/C (second compound 10 µM, first compound 1 µM) 12.3%
164 nM: IC50 (curve of first compound, second compound 0.316 µM)

CNC(=O)c1ccc(N2C(=S)N(c3ccc(C#N)c(C(F)(F)F)c3)C(=O)C2(C)C)cc1F
inactive: viability, T/C (compound 0.0316 µM) 96.3% [middle of 4 runs] | viability, T/C (compound 0.1 µM) 87.5% [middle of 4 runs] | viability, T/C (compound 1 µM) 90.5% [middle of 4 runs] | viability, T/C (compound 3.16 µM) 82.8% [middle of 4 runs] | viability, T/C (compound 10 µM) 72% [middle of 4 runs]
> 10000 nM: IC50 (curve of compound)

Cc1nc(NC(=O)N2CCCC2C(N)=O)sc1-c1ccnc(C(C)(C)C(F)(F)F)c1 (stereo not given)
inactive: viability, T/C (compound 0.0316 µM) 89.2% [middle of 8 runs] | viability, T/C (compound 0.1 µM) 86.3% [middle of 8 runs] | viability, T/C (compound 0.316 µM) 57.4% [middle of 8 runs] | viability, T/C (compound 1 µM) 33.8% [middle of 8 runs] | viability, T/C (compound 3.16 µM) 14.5% [middle of 8 runs]
475 nM [middle of 7 runs]: IC50 (compound alone, run of 05/08/2023)
active: viability, T/C (compound 10 µM) 3.58% [middle of 7 runs]
